We go through 22 compounds from patent US20220017483A1, “AMINOPYRIDINE COMPOUND, PREPARATION METHOD THEREFOR AND USE THEREOF” (SICHUAN-KELUN-BIOTECH BIOPHARMACEUTICAL CO., LTD, priority 2018, published 2022).

The target of test [1] is T1, A1 receptor cell membrane (human origin) (Homo sapiens, UniProt P30542).
T1 construct: purchased PerkinElmer ES-010-M400UA
T1 sequence (P30542 1-326): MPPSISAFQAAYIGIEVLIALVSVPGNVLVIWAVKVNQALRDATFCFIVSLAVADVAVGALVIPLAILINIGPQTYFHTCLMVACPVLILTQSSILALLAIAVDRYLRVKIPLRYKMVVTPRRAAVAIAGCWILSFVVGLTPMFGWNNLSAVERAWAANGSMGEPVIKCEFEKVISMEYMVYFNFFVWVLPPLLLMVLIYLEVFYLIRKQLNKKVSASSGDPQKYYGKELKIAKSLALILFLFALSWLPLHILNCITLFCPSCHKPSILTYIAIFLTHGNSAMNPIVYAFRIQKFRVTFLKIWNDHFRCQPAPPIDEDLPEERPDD
Kind of test: Competitive inhibition constant (Ki) for adenosine A1 receptor, [3H]-DPCPX radioligand binding. The conditions noted are these: [3H]-DPCPX 1.0 nM. On the procedure:
Experimental Example 1: Determination of the Competitive Inhibition Constant (Ki) for Adenosine A1 and A2a Receptors
[^3H]-DPCPX: PerkinElmer, NET974250UC
A1 receptor cell membrane (human origin): PerkinElmer, ES-010-M400UA
A1 test buffer: 25 mM HEPES, 5 mM MgCl2, 1 mM CaCl2, 100 mM NaCl, pH7.4
A1 washing buffer: 25 mM HEPES, 5 mM MgCl2, 1 mM CaCl2, 100 mM NaCl, pH7.4
(§1) The A1 receptor cell membrane was diluted to 0.025 μg/μl with the A1 test buffer and the A2a receptor cell membrane was diluted to 0.05 μg/μl with the A2a test buffer to obtain an A1 receptor cell membrane dilution and an A2a receptor cell membrane dilution.
(§2) The tested compound and CGS15943 were gradiently diluted with DMSO. 1 μl test compound, high-value control (0.5% DMSO), low-value control (1000 nM CGS15943) were added to a 96-well plate, wherein each well was added with 100 μl A1 receptor cell membrane dilution (containing 2.5 μg cell membrane) to obtain an A1 detection plate. Through the same steps, 100 μl A2a receptor cell membrane dilution (containing 5.0 μg cell membrane) was added to each well of a 96-well plate to obtain an A2a detection plate.
100 μl of radioisotope-labelled ligand [^3H]-DPCPX (diluted in A1 test buffer, working concentration 1.0 nM) was added to the A1 detection plate, and 100 μl of radioisotope-labelled ligand [^3H]-CGS-21680 (diluted in A2a test buffer, working concentration 6.0 nM) was added to the A2a detection plate. The A1 and A2a detection plates were sealed with a tap, and incubated at room temperature for 1 h and 2 h, respectively.
(§3) Unifilter-96 GF/C filter plate was prepared. The Unifilter-96 GF/C filter plate was added with 50 μl 0.3% PEI in each well, and incubated at room temperature for no less than 0.5 h.
(§4) After the incubation, the reaction solutions in the A1 detection plate and the A2a detection plate were transferred to two Unifilter-96 GF/C filter plates. The filter plates were washed with the corresponding pre-cooled washing buffers, then oven dried. After sealing the bottom of the filter plates, 50 μl of Microscint 20 cocktail scintillation fluid was added. After sealing the top of the filter plates, the plates were read in the counter MicroBeta2 Reader.
(§5) Data analysis: The inhibition rate was calculated according to the following formula:
(§6) Inhibition rate %=100−(the signal value of the tested wells−the signal average of the low-value control)/(the signal average of the high-value control−the signal average of the low-value control)*100.
(§7) IC50 was fitted by EXCEL XLfit. The competitive inhibition constant (Ki) was calculated according to the formula: Ki=IC50/(1+the concentration of the isotope-labelled ligands/Kd); Kd is the dissociation constant of the isotope-labeled ligands.

Test [2] deals with T2, A2a receptor cell membrane (human origin) (Homo sapiens, UniProt P29274).
T2 construct: purchased PerkinElmer RBHA2AM400UA
Kind of test: Competitive inhibition constant (Ki) for adenosine A2a receptor, [3H]-CGS-21680 radioligand binding. The settings on record: for Ki(A1)/Ki(A2a): selectivity ratio A1 over A2a. How it is done:
A2a receptor cell membrane (human origin): PerkinElmer, RBHA2AM400UA
A2a test buffer: 50 mM Tris-HCl, 10 mM MgCl2, 1 mM EDTA, pH7.4
as §1, §2
The A1 and A2a detection plates were sealed with a tap, and incubated at room temperature for 1 h and 2 h, respectively.
as §3, §4, §5, §6, §7

Setting [3] is: human A2a receptor cell membrane, [3H]-CGS-21680 6.0 nM, read-out: Ki(A2a).

Read-outs that look alike come from different tables or passages of the source.

T2 sequence (P29274 whole entry): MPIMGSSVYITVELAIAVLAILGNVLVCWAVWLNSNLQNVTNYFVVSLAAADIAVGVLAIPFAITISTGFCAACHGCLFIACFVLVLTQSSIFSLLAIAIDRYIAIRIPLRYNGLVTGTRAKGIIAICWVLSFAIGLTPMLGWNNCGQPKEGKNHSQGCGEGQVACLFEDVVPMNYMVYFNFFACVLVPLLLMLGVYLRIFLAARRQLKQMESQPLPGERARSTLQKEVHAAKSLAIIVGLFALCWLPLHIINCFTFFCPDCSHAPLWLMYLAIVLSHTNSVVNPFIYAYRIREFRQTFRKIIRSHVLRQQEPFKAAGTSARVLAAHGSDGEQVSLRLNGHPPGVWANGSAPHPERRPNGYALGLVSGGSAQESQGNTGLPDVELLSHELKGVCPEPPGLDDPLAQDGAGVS

With `Cc1ccnc2ccc(-c3cc(-c4nnc(C(N)=O)o4)c(N)nc3-c3ccc(F)cc3)cc12` [Compound 29, 5-(2-amino-6-(4-fluorophenyl)-5-(4-methylquinolin-6-yl)pyridin-3-yl)-1,3,4-oxadiazol-2-carboxamide], the Ki in test [1] was 30 nM; in test [2] (setting [3]), 1.2 nM. In addition, in test [2], the “Ki(A1)/Ki(A2a)” value was 25.0.
For `NC(=O)c1cc(-c2ccncc2)c(-c2cccc(F)c2)nc1N` [Control compound 1, reference compound], the results for the Ki in test [1] and in test [2] (setting [3]) were 25.7 nM and 138 nM, respectively. Further, in test [2], the “Ki(A1)/Ki(A2a)” value is 0.2.
As for `Cc1ncnc2ccc(-c3cc(-c4cnn(C)c4)c(N)nc3-c3ccc(F)cc3)cc12` [Compound 8, 6-(4-fluorophenyl)-3-(1-methyl-1H-pyrazol-4-yl)-5-(4-methylquinazolin-6-yl)pyridin-2-amine], the Ki in test [1] worked out at 713 nM; in test [2] (setting [3]), 4.8 nM. Besides, the “Ki(A1)/Ki(A2a)” value in test [2] was found to be 148.5.
On to `Cc1ncnc2ccc(-c3cc(-n4cc(C(N)=O)cn4)c(N)nc3-c3ccc(F)cc3)cc12` [Compound 24, 1-(2-amino-6-(4-fluorophenyl)-5-(4-methylquinazolin-6-yl)pyridin-3-yl)-1H-pyrazol-4-carboxamide], for which the Ki turned out to be 3480 nM in test [1] and 23.2 nM in test [2] (setting [3]). For the same compound, the “Ki(A1)/Ki(A2a)” value in test [2] was 150.0.
In the case of `Cc1ncnc2ccc(-c3cc(-c4cnn(CCN(C)C)c4)c(N)nc3-c3ccc(F)cc3)cc12` [Compound 16, 3-(1-(2-(dimethylamino)ethyl)-1H-pyrazol-4-yl)-6-(4-fluorophenyl)-5-(4-methylquinazolin-6-yl)pyridin-2-amine], the inhibitory constant (Ki) in test [1] is 1380 nM; in test [2] (setting [3]), 16.7 nM. Besides, in test [2], the “Ki(A1)/Ki(A2a)” value was found to be 82.6.
In the case of `Cc1ccnc2ccc(-c3cc(-c4cnn(CCC(N)=O)c4)c(N)nc3-c3ccc(F)cc3)cc12` [Compound 31, 3-(4-(2-amino-6-(4-fluorophenyl)-5-(4-methylquinolin-6-yl)pyridin-3-yl)-1H-pyrazol-1-yl)propionamide], the Ki in test [1] amounted to 146 nM; in test [2] it was 1.6 nM. Further, the “Ki(A1)/Ki(A2a)” value in test [2] is 91.0.
For the compound `COC(=O)c1cc(-c2ccc3ncnc(C)c3c2)c(-c2ccc(F)cc2)nc1N` [Compound 3, methyl 2-amino-6-(4-fluorophenyl)-5-(4-methylquinazolin-6-yl) nicotinate], the inhibitory constant (Ki) was found to be 1090 nM in test [1] and 4.9 nM in test [2] (setting [3]). The “Ki(A1)/Ki(A2a)” value in test [2] is 222.8.
For `Cc1ncnc2ccc(-c3ccc(N)nc3-c3ccc(F)cc3)cc12` [Compound 1, 6-(4-fluorophenyl)-5-(4-methylquinazolin-6-yl)pyridin-2-amine], the “Ki(A1)/Ki(A2a)” value in test [2] is 339.0.
As to `Cc1ncnc2ccc(-c3c(C#N)cc(N)nc3-c3ccc(F)cc3)cc12` [Compound 11, 6-amino-2-(4-fluorophenyl)-3-(4-methylquinazolin-6-yl) isonicotinonitrile], the Ki in test [1] was found to be 205 nM; in test [2] (setting [3]), 1.4 nM. The “Ki(A1)/Ki(A2a)” value in test [2] is given as 146.5.
Consider `Cc1ccnc2ccc(-c3cc(C(N)=O)c(N)nc3-c3ccc(F)cc3)cc12` [Compound 22, 2-amino-6-(4-fluorophenyl)-5-(4-methylquinolin-6-yl)nicotinamide], for which the inhibition constant Ki in test [1] turned out to be 106 nM; in test [2] (setting [3]) it was 1.6 nM. In test [2], the “Ki(A1)/Ki(A2a)” value was found to be 66.3.
For the compound `Cc1ncnc2ccc(-c3cc(C(N)=O)c(N)nc3-c3cc(F)cc(F)c3)cc12` [Compound 12, 2-amino-6-(3,5-difluorophenyl)-5-(4-methylquinazolin-6-yl) nicotinamide], the Ki in test [1] worked out at 374 nM; in test [2] (setting [3]), 6.8 nM. In test [2], the “Ki(A1)/Ki(A2a)” value turned out to be 54.9.
As to `Cc1ncnc2ccc(-c3cc(-c4nnn[nH]4)c(N)nc3-c3ccc(F)cc3)cc12` [Compound 9, 6-(4-fluorophenyl)-5-(4-methylquinazolin-6-yl)-3-(1H-tetrazol-5-yl) pyridin-2-amine], the Ki was found to be 1070 nM in test [1] and 12.6 nM in test [2] (setting [3]). Moreover, the “Ki(A1)/Ki(A2a)” value in test [2] was determined as 85.3.
The corresponding values for `Cc1ncnc2ccc(-c3cc(-c4nnc(C(N)=O)o4)c(N)nc3-c3ccc(F)cc3)cc12` [Compound 25, 5-(2-amino-6-(4-fluorophenyl)-5-(4-methylquinazolin-6-yl)pyridin-3-yl)-1,3,4-oxadiazol-2-carboxamide] are 132 nM, 2.3 nM and 57.6.
As for `Cc1ncnc2ccc(-c3c(Cl)cc(N)nc3-c3ccc(F)cc3)cc12` [Compound 10, 4-chloro-6-(4-fluorophenyl)-5-(4-methylquinazolin-6-yl)pyridin-2-amine], the results for the Ki in test [1] and in test [2] (setting [3]) were 438 nM and 2 nM, respectively. Besides, in test [2], the “Ki(A1)/Ki(A2a)” value was 219.0.
Take `CNC(=O)c1cc(-c2ccc3ncnc(C)c3c2)c(-c2ccc(F)cc2)nc1N` [Compound 7, 2-amino-6-(4-fluorophenyl)-N-methyl-5-(4-methylquinazolin-6-yl) nicotinamide]: the Ki in test [1] worked out at 4950 nM; in test [2] (setting [3]), 20.2 nM. Also, the “Ki(A1)/Ki(A2a)” value in test [2] is 245.0.
For `Cc1ncnc2ccc(-c3cc(Br)c(N)nc3-c3ccc(F)cc3)cc12` [Compound 2, 3-bromo-6-(4-fluorophenyl)-5-(4-methylquinazolin-6-yl)pyridin-2-amine], the values for the Ki in test [1] and in test [2] (setting [3]) were 291 nM and 2.6 nM, respectively. Also, the “Ki(A1)/Ki(A2a)” value in test [2] was 112.1.
Consider `Cc1ncnc2ccc(-c3cc(C(=O)O)c(N)nc3-c3ccc(F)cc3)cc12` [Compound 4, 2-amino-6-(4-fluorophenyl)-5-(4-methylquinazolin-6-yl)nicotinic acid], for which the Ki in test [1] came to 7510 nM; in test [2] (setting [3]), 25.6 nM. Further, the “Ki(A1)/Ki(A2a)” value in test [2] worked out at 293.5.
Take `Cc1cc(-c2cc(-c3cnn(CCC(N)=O)c3)c(N)nc2-c2ccc(F)cc2)cc(Cl)n1` [Compound 30, 3-(4-(6-amino-2′-chloro-2-(4-fluorophenyl)-6′-methyl-[3,4′-bipyridine]-5-yl)-1H-pyrazol-1-yl)propionamide]: the Ki in test [1] came out at 1930 nM. In test [2], the Ki came to 50.8 nM and the “Ki(A1)/Ki(A2a)” value was 38.0.
As for `Cc1cc(-c2cc(-n3cc(C(N)=O)cn3)c(N)nc2-c2ccc(F)cc2)cc(Cl)n1` [Compound 26, 1-(6-amino-2′-chloro-2-(4-fluorophenyl)-6′-methyl-[3,4′-bipyridine]-5-yl)-1H-pyrazol-4-carboxamide], the Ki in test [1] is 4850 nM; in test [2] (setting [3]) it was 104 nM.
As to `Cc1ncnc2ccc(-c3cc(C(N)=O)c(N)nc3-c3ccccc3F)cc12` [Compound 13, 2-amino-6-(2-fluorophenyl)-5-(4-methylquinazolin-6-yl) nicotinamide], the Ki stood at 4380 nM in test [1] and 12.2 nM in test [2] (setting [3]). For the same compound, the “Ki(A1)/Ki(A2a)” value in test [2] is reported as 359.0.
Regarding `COCCn1cc(-c2cc(-c3ccc4ncnc(C)c4c3)c(-c3ccc(F)cc3)nc2N)cn1` [Compound 17, 6-(4-fluorophenyl)-3-(1-(2-methoxyethyl)-1H-pyrazol-4-yl)-5-(4-methylquinazolin-6-yl)pyridin-2-amine], the Ki came out at 316 nM in test [1] and 2.3 nM in test [2]. Also, the “Ki(A1)/Ki(A2a)” value in test [2] stood at 137.3.
`Cc1ncnc2ccc(-c3cc(C#N)c(N)nc3-c3ccc(F)cc3)cc12` [Compound 5, 2-amino-6-(4-fluorophenyl)-5-(4-methylquinazolin-6-yl) nicotinonitrile]: the values for the Ki in test [1] and in test [2] (setting [3]) were 683 nM and 2.1 nM, respectively. Also, the “Ki(A1)/Ki(A2a)” value in test [2] amounted to 325.3.

In general, Ki refers to the dissociation constant of the complex between target and ligand, obtained from inhibition or displacement.
